These compounds were tested on KRas G12D-mediated phosphorylation of ERK (assay: Inhibition of KRas G12D-mediated phosphorylation of ERK in AGS cells). Conditions: Homo sapiens; AGS cells expressing G12D, 3 hours, phospho-ERK normalized to GAPDH.
Format: cell-based
Method in brief: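 In-cell Western: p-ERK Thr202/Tyr204 signal over GAPDH, as % of DMSO control, with IC50 from a 4-parameter curve. AGS cells seeded 40,000/well for 12-14 h, exposed to compound 3 h at 0.5% DMSO final, then formaldehyde-fixed and methanol-permeabilized.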

Row | SMILES | IC50 [µM]
1 | CN1CCC[C@H]1COc1nc(N2C[C@H]3CC[C@@H](C2)N3)c2cnc(-c3cccc4cccc(Cl)c34)c(F)c2n1 [Example 132, 4-((1R,5S)-3,8-diazabicyclo[3.2.1]octan-3-yl)-7-(8-chloronaphthalen-1-yl)-8-fluoro-2-(((S)-1-methylpyrrolidin-2-yl)methoxy)pyrido[4,3-d]pyrimidine] | 2.56
2 | CC1CCCc2cccc(-c3ncc4c(N5CC6CCC(C5)N6)nc(OC[C@@H]5CCCN5C)nc4c3F)c21 (stereo partly drawn) [Example 133, 4-((1R,5S)-3,8-diazabicyclo[3.2.1]octan-3-yl)-8-fluoro-7-(8-methyl-5,6,7,8-tetrahydronaphthalen-1-yl)-2-(((S)-1-methylpyrrolidin-2-yl)methoxy)pyrido[4,3-d]pyrimidine] | 2.05
3 | Nc1cccc(CCOc2nc(N3C[C@H]4CC[C@@H](C3)N4)c3cnc(-c4cc(O)cc5ccccc45)c(F)c3n2)n1 [Example 139, 4-(2-(2-(6-aminopyridin-2-yl)ethoxy)-4-((1R,5S)-3,8-diazabicyclo[3.2.1]octan-3-yl)-8-fluoropyrido[4,3-d]pyrimidin-7-yl)naphthalen-2-ol] | 5.25
4 | Nc1ccc(CCOc2nc(N3C[C@H]4CC[C@@H](C3)N4)c3cnc(-c4cccc5cccc(Cl)c45)c(F)c3n2)cn1 [Example 141, 5-(2-((4-((1R,5S)-3,8-diazabicyclo[3.2.1]octan-3-yl)-7-(8-chloronaphthalen-1-yl)-8-fluoropyrido[4,3-d]pyrimidin-2-yl)oxy)ethyl)pyridin-2-amine] | > 16.7
5 | O[C@@H]1C[C@@H]2CN(c3nc(N4CCC4)nc4c(F)c(-c5cccc6cccc(Cl)c56)ncc34)C[C@H]1N2 [Example 152, (1R,5R,6R)-3-(2-(azetidin-1-yl)-7-(8-chloronaphthalen-1-yl)-8-fluoropyrido[4,3-d]pyrimidin-4-yl)-3,8-diazabicyclo[3.2.1]octan-6-ol] | > 50
6 | CN1CCC[C@H]1COc1nc(N2CC3CCC(C)(C2)N3)c2cnc(-c3cc(O)cc4ccccc34)c(F)c2n1 (stereo partly drawn) [Example 156, 4-(8-fluoro-4-(1-methyl-3,8-diazabicyclo[3.2.1]octan-3-yl)-2-(((S)-1-methylpyrrolidin-2-yl)methoxy)pyrido[4,3-d]pyrimidin-7-yl)naphthalen-2-ol bis(2,2,2-trifluoroacetate)] | 1.79
7 | CN1CCC[C@H]1COc1nc(N2CC3CCC(CCC#N)(C2)N3)c2cnc(-c3cc(O)cc4ccccc34)c(F)c2n1 (stereo partly drawn) [Example 157, 3-(3-(8-fluoro-7-(3-hydroxynaphthalen-1-yl)-2-(((S)-1-methylpyrrolidin-2-yl)methoxy)pyrido[4,3-d]pyrimidin-4-yl)-3,8-diazabicyclo[3.2.1]octan-1-yl)propanenitrile bis(2,2,2-trifluoroacetate)] | 8
8 | CN1CCC[C@H]1COc1nc(N2CC3CCC(C(N)=O)(C2)N3)c2cnc(-c3cc(O)cc4ccccc34)c(F)c2n1 (stereo partly drawn) [Example 159, 3-(8-fluoro-7-(3-hydroxynaphthalen-1-yl)-2-(((S)-1-methylpyrrolidin-2-yl)methoxy)pyrido[4,3-d]pyrimidin-4-yl)-3,8-diazabicyclo[3.2.1]octane-1-carboxamide bis(2,2,2-trifluoroacetate)] | > 16.7
9 | CN1CCC[C@H]1COc1nc(N2CC3CCC(Cl)(C2)N3)c2cnc(-c3cc(O)cc4ccccc34)c(F)c2n1 (stereo partly drawn) [Example 160, 4-(4-(1-chloro-3,8-diazabicyclo[3.2.1]octan-3-yl)-8-fluoro-2-(((S)-1-methylpyrrolidin-2-yl)methoxy)pyrido[4,3-d]pyrimidin-7-yl)naphthalen-2-ol bis(2,2,2-trifluoroacetate)] | 6.93
10 | CN1CCC[C@H]1COc1nc(N2C[C@H]3CC[C@@H](C2)N3)c2cnc(-c3cccc4c3C(C)(C)CC4)c(F)c2n1 [Example 161, 4-((1R,5S)-3,8-diazabicyclo[3.2.1]octan-3-yl)-7-(3,3-dimethyl-2,3-dihydro-1H-inden-4-yl)-8-fluoro-2-(((S)-1-methylpyrrolidin-2-yl)methoxy)pyrido[4,3-d]pyrimidine bis(2,2,2-trifluoroacetate)] | > 16.7
